Reference: US7776833B2, “Use of cyclic bioisosters of purine system derivatives for treating diseases produced by disorders of niterergic and dopaminergic systems” (priority 2003, dated 2010)

Tests used:
Format in all cases: in vivo, Wistar rats
[1] = system: nitric oxide synthase (NOS); assay: Nitric oxide synthase activity in brain regions, radiometric [3H]L-citrulline method; details: 3 x 20 mg/kg intramuscularly
Procedure, shortened: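 Rat cortex, hippocampus, mesencephalon, striatum, brainstem, hypothalamus and cerebellum were homogenized in 20 mM HEPES pH 7.5, and the 11000 g supernatant was incubated 15-60 min at 37 °C with [3H]L-arginine, 0.2 mM CaCl2, FAD, FMN, NADPH and BH4. [3H]L-citrulline was counted after Dowex removal of arginine. Ca2+-dependent/independent activity was split using EDTA ± L-NAME, per mg Bradford protein.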

[2] = system: physical dependence from morphine (morphine abstinence); assay: Morphine abstinence syndrome, signs scored in the open field test; details: Morphine − (morphine + compound); compound 3 x 20 mg/kg intramuscularly; one value for the three compounds
[3] = system: nitrites and nitrates (NOx-); assay: Measurement of nitrates/nitrites (NOx-) in brain regions after the morphine abstinence experiment; details: 3 x 20 mg/kg intramuscularly
Procedure, shortened: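 Rat brain regions homogenized in 20 mM HEPES pH 7.5 at 4 °C; deproteinized supernatants treated with nitrate reductase, 25 μM NADPH, 25 μM FAD (37 °C, 30 min), then DAN in acid; naphthotriazole fluorescence (ex 365/em 405 nm) against sodium nitrate standard, expressed as nmol/mg protein (Bradford).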

[4] = Groups Nos. 3-14, compound without morphine, one value for all 12 compounds
[5] = Morphine + compound, one value for the three compounds

| Structure (SMILES) | Activity of NOS, hippocampus [1, 4] | Activity of NOS, hypothalamus [1, 4] | Activity of NOS, midbrain [1, 4] | Activity of NOS, striatum [1, 4] | Activity of NOS, hippocampus [1, 5] | Activity of NOS, hypothalamus [1, 5] | Activity of NOS, midbrain [1, 5] | Activity of NOS, striatum [1, 5] | Authentic differences (ξ-square criterion) in appearance of signs of abstinence: <<Wet dog>> shakes [2] | Authentic differences (ξ-square criterion) in appearance of signs of abstinence: Aggression [2] | Authentic differences (ξ-square criterion) in appearance of signs of abstinence: Convulsions [2] | Authentic differences (ξ-square criterion) in appearance of signs of abstinence: Diarrhea [2] | Authentic differences (ξ-square criterion) in appearance of signs of abstinence: Dyspnea [2] | Authentic differences (ξ-square criterion) in appearance of signs of abstinence: Forelimb jogging [2] | Authentic differences (ξ-square criterion) in appearance of signs of abstinence: Grit with teeth [2] | Authentic differences (ξ-square criterion) in appearance of signs of abstinence: Mastication [2] | Authentic differences (ξ-square criterion) in appearance of signs of abstinence: Piloerection [2] | Authentic differences (ξ-square criterion) in appearance of signs of abstinence: Ptosis [2] | Authentic differences (ξ-square criterion) in appearance of signs of abstinence: Rhinorrhea [2] | Authentic differences (ξ-square criterion) in appearance of signs of abstinence: Squeak when touched [2] | further results |
| --- | --- | --- | --- | --- | --- | --- | --- | --- | --- | --- | --- | --- | --- | --- | --- | --- | --- | --- | --- | --- | --- |
| Nc1cnc2c(=O)n([C@@H]3O[C@H](CO)[C@@H](O)[C@H]3O)[nH]c(=O)c2n1.[Na] [Compound 21, sodium salt of 3-amino-7-(β-D-ribofuranosile)pyrazino[2,3-d]-6H-pyridazine-5,8-dione] | 3.09 ± 0.16 nmol/min/mg of protein | 5.45 ± 0.24 nmol/min/mg of protein | 2.60 ± 0.29 nmol/min/mg of protein | 1.26 ± 0.08 nmol/min/mg of protein | 2.33 ± 0.11 nmol/min/mg of protein | 5.47 ± 0.32 nmol/min/mg of protein | 2.03 ± 0.31 nmol/min/mg of protein | 1.21 ± 0.10 nmol/min/mg of protein | 0.7821 | 0.7921 | 0.3456 | 0.0067 | 0.0567 | 0.6745 | 0.2994 | 0.1975 | 0.2567 | 0.0105 | 0.2131 | 0.1968 | Nitrites, brainstem [3, 4]: 6.31 ± 0.58 nmol/mg of protein; Nitrites, cerebellum [3, 4]: 6.66 ± 0.63 nmol/mg of protein; Nitrites, cerebral cortex [3, 4]: 4.31 ± 0.37 nmol/mg of protein; Nitrites, hippocampus [3, 4]: 6.47 ± 0.72 nmol/mg of protein; Nitrites, hypothalamus [3, 4]: 6.77 ± 0.83 nmol/mg of protein; Nitrites, midbrain [3, 4]: 6.65 ± 0.70 nmol/mg of protein; Nitrites, striatum [3, 4]: 6.11 ± 0.29 nmol/mg of protein; Nitrites, brainstem [3, 5]: 7.07 ± 0.85 nmol/mg of protein; Nitrites, cerebellum [3, 5]: 5.76 ± 0.49 nmol/mg of protein; Nitrites, cerebral cortex [3, 5]: 4.62 ± 0.27 nmol/mg of protein; Nitrites, hippocampus [3, 5]: 5.27 ± 0.41 nmol/mg of protein; Nitrites, hypothalamus [3, 5]: 6.87 ± 0.75 nmol/mg of protein; Nitrites, midbrain [3, 5]: 5.99 ± 0.58 nmol/mg of protein; Nitrites, striatum [3, 5]: 3.57 ± 0.42 nmol/mg of protein |
| O=C([O-])c1cnc2c(=O)[nH]n([C@@H]3O[C@H](CO)[C@@H](O)[C@H]3O)c(=O)c2n1.O=C([O-])c1cnc2c(=O)[nH]n([C@@H]3O[C@H](CO)[C@@H](O)[C@H]3O)c(=O)c2n1.[Na+].[Na+] [Compound 24, disodium salt of 2-carboxy-7-(β-D-ribofuranosile)pyrazino[2,3-d]-6H-pyridazine-5,8-dione] | 3.09 ± 0.16 nmol/min/mg of protein | 5.45 ± 0.24 nmol/min/mg of protein | 2.60 ± 0.29 nmol/min/mg of protein | 1.26 ± 0.08 nmol/min/mg of protein | 2.33 ± 0.11 nmol/min/mg of protein | 5.47 ± 0.32 nmol/min/mg of protein | 2.03 ± 0.31 nmol/min/mg of protein | 1.21 ± 0.10 nmol/min/mg of protein | 0.7821 | 0.7921 | 0.3456 | 0.0067 | 0.0567 | 0.6745 | 0.2994 | 0.1975 | 0.2567 | 0.0105 | 0.2131 | 0.1968 | Nitrites, brainstem [3, 4]: 6.31 ± 0.58 nmol/mg of protein; Nitrites, cerebellum [3, 4]: 6.66 ± 0.63 nmol/mg of protein; Nitrites, cerebral cortex [3, 4]: 4.31 ± 0.37 nmol/mg of protein; Nitrites, hippocampus [3, 4]: 6.47 ± 0.72 nmol/mg of protein; Nitrites, hypothalamus [3, 4]: 6.77 ± 0.83 nmol/mg of protein; Nitrites, midbrain [3, 4]: 6.65 ± 0.70 nmol/mg of protein; Nitrites, striatum [3, 4]: 6.11 ± 0.29 nmol/mg of protein; Nitrites, brainstem [3, 5]: 7.07 ± 0.85 nmol/mg of protein; Nitrites, cerebellum [3, 5]: 5.76 ± 0.49 nmol/mg of protein; Nitrites, cerebral cortex [3, 5]: 4.62 ± 0.27 nmol/mg of protein; Nitrites, hippocampus [3, 5]: 5.27 ± 0.41 nmol/mg of protein; Nitrites, hypothalamus [3, 5]: 6.87 ± 0.75 nmol/mg of protein; Nitrites, midbrain [3, 5]: 5.99 ± 0.58 nmol/mg of protein; Nitrites, striatum [3, 5]: 3.57 ± 0.42 nmol/mg of protein |
| O=c1[nH][nH]c(=O)c2nccnc12.[Li] [Compound 26, lithium salt of pyrazino[2,3-d]-6H-pyridazine-5,8-dione] | 3.09 ± 0.16 nmol/min/mg of protein | 5.45 ± 0.24 nmol/min/mg of protein | 2.60 ± 0.29 nmol/min/mg of protein | 1.26 ± 0.08 nmol/min/mg of protein | 2.33 ± 0.11 nmol/min/mg of protein | 5.47 ± 0.32 nmol/min/mg of protein | 2.03 ± 0.31 nmol/min/mg of protein | 1.21 ± 0.10 nmol/min/mg of protein | 0.7821 | 0.7921 | 0.3456 | 0.0067 | 0.0567 | 0.6745 | 0.2994 | 0.1975 | 0.2567 | 0.0105 | 0.2131 | 0.1968 | Nitrites, brainstem [3, 4]: 6.31 ± 0.58 nmol/mg of protein; Nitrites, cerebellum [3, 4]: 6.66 ± 0.63 nmol/mg of protein; Nitrites, cerebral cortex [3, 4]: 4.31 ± 0.37 nmol/mg of protein; Nitrites, hippocampus [3, 4]: 6.47 ± 0.72 nmol/mg of protein; Nitrites, hypothalamus [3, 4]: 6.77 ± 0.83 nmol/mg of protein; Nitrites, midbrain [3, 4]: 6.65 ± 0.70 nmol/mg of protein; Nitrites, striatum [3, 4]: 6.11 ± 0.29 nmol/mg of protein; Nitrites, brainstem [3, 5]: 7.07 ± 0.85 nmol/mg of protein; Nitrites, cerebellum [3, 5]: 5.76 ± 0.49 nmol/mg of protein; Nitrites, cerebral cortex [3, 5]: 4.62 ± 0.27 nmol/mg of protein; Nitrites, hippocampus [3, 5]: 5.27 ± 0.41 nmol/mg of protein; Nitrites, hypothalamus [3, 5]: 6.87 ± 0.75 nmol/mg of protein; Nitrites, midbrain [3, 5]: 5.99 ± 0.58 nmol/mg of protein; Nitrites, striatum [3, 5]: 3.57 ± 0.42 nmol/mg of protein |
| O=c1[nH]n([C@@H]2O[C@H](CO)[C@@H](O)[C@H]2O)c(=O)c2nc(Br)ncc12.[Na] [Compound 32, sodium salt of 2-bromine-7-(β-D-ribofuranosile)pyrimido[4,5-d]-6H-pyridazine-5,8-dione] | 3.09 ± 0.16 nmol/min/mg of protein | 5.45 ± 0.24 nmol/min/mg of protein | 2.60 ± 0.29 nmol/min/mg of protein | 1.26 ± 0.08 nmol/min/mg of protein | 2.65 ± 0.15 nmol/min/mg of protein | 5.56 ± 0.34 nmol/min/mg of protein | 1.89 ± 0.27 nmol/min/mg of protein | 1.34 ± 0.09 nmol/min/mg of protein | 1.0000 | 0.8456 | 0.5578 | 0.0001 | 0.0685 | 0.9321 | 0.7003 | 0.1888 | 0.2345 | 0.0232 | 0.2935 | 0.2035 | Nitrites, brainstem [3, 4]: 6.31 ± 0.58 nmol/mg of protein; Nitrites, cerebellum [3, 4]: 6.66 ± 0.63 nmol/mg of protein; Nitrites, cerebral cortex [3, 4]: 4.31 ± 0.37 nmol/mg of protein; Nitrites, hippocampus [3, 4]: 6.47 ± 0.72 nmol/mg of protein; Nitrites, hypothalamus [3, 4]: 6.77 ± 0.83 nmol/mg of protein; Nitrites, midbrain [3, 4]: 6.65 ± 0.70 nmol/mg of protein; Nitrites, striatum [3, 4]: 6.11 ± 0.29 nmol/mg of protein; Nitrites, brainstem [3, 5]: 6.87 ± 0.81 nmol/mg of protein; Nitrites, cerebellum [3, 5]: 5.93 ± 0.54 nmol/mg of protein; Nitrites, cerebral cortex [3, 5]: 4.84 ± 0.31 nmol/mg of protein; Nitrites, hippocampus [3, 5]: 5.31 ± 0.33 nmol/mg of protein; Nitrites, hypothalamus [3, 5]: 6.77 ± 0.46 nmol/mg of protein; Nitrites, midbrain [3, 5]: 5.95 ± 0.52 nmol/mg of protein; Nitrites, striatum [3, 5]: 3.57 ± 0.42 nmol/mg of protein |
